Test results published in ChEMBL document CHEMBL1201862, “PubChem BioAssay data set” (2004).
Activity calls are given as the source filed them.

How the values were obtained:
[1] = decrease of insulin promoter-GFP reporter – imaging, high-content screening, mouse beta cells (AID 1628); assay type: functional; details: MIN6
[2] = MIN6 cell viability loss – mouse insulinoma, cytotoxicity control, dose response (AID 2122); assay type: functional;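 note: confirmatory high-throughput counterscreen run to flag cytotoxic compounds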
[3] = Luminescence Cell-Based Dose Response Follow up to Identify Inhibitors of Platelet Dense Granule Release. [Related pubchem assays (depositor defined):AID1663, AID1678, AID2398]; assay type: functional
[4] = target: T1, Mannose-6-phosphate isomerase (Homo sapiens, UniProt P34949); assay: MPI enzyme activity inhibition – biochemical, fluorescence intensity, coupled assay, primary screen (AID 1209)
T1 sequence (P34949 whole entry): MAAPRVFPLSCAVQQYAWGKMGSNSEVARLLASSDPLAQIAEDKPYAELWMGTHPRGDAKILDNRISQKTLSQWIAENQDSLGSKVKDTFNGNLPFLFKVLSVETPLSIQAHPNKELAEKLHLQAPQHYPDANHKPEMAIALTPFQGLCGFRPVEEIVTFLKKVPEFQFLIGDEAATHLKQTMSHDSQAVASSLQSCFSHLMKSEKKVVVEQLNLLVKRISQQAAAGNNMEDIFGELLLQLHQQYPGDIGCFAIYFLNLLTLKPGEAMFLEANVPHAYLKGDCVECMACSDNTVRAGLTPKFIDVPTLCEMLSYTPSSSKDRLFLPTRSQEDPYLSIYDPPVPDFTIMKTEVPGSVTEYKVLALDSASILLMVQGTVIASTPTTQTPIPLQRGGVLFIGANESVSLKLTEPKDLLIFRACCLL

[5] = target: T1, Mannose-6-phosphate isomerase; assay: phosphomannose isomerase inhibition – biochemical, fluorescence intensity, confirmation (AID 1535)
[6] = target: DNA dC->dU-editing enzyme APOBEC-3A (Homo sapiens, UniProt P31941); assay: A3A deaminase inhibition for selectivity – biochemical, dose response (AID 504722); assay type: functional
Phosphomannomutase 2 = Phosphomannomutase 2 (Homo sapiens, UniProt O15305); assay: Counter screen SAR assay for PMM2 inhibitors via a fluorescence intensity assay. [Related pubchem assays (depositor defined):AID1545, AID1574]
[7] = target: DNA dC->dU-editing enzyme APOBEC-3G (Homo sapiens, UniProt Q9HC16); assay: Dose Response confirmation of small molecule APOBEC3G DNA Deaminase Inhibitors via a fluorescence-based single-stranded DNA deaminase assay. [Related pubchem assays (depositor defined):AID493012, AID493028]; assay type: functional
[8] = viability of uninfected HEp-2 cells – cell-based, HTS, cytotoxicity control for RSV inhibitor project, dose response (AID 2410); assay type: functional; details: human respiratory syncytial virus
[9] = Luminescence Cell-Based Dose Retest to Confirm Inhibitors of Cancer Stem Cells. [Related pubchem assays (depositor defined):AID2717, AID2721]; assay type: functional; details: Homo sapiens
Trypsin = Trypsin (Sus scrofa, UniProt P00761); assay: trypsin protease activity blockade – biochemical, quenched peptide fluorescence, cherry-pick, selectivity assay for Rce1 protease inhibitor project, dose response (AID 488789)
CAAX prenyl protease 2 = CAAX prenyl protease 2 (Homo sapiens, UniProt Q9Y256); assay: inhibition of Ras-converting CAAX protease Rce1 – biochemical, yeast membranes, quenched-peptide fluorescence, cherry-pick, dose response (AID 588849)
[10] = target: T2, Endoribonuclease toxin MazF (Escherichia coli K-12, UniProt P0AE70); assay: activation of MazEF endoribonuclease cleavage – biochemical, fluorescence, single-stranded RNA substrate, uHTS hits, dose response (AID 588481); assay type: functional
[11] = target: T2, Endoribonuclease toxin MazF; assay: substrate-only fluorescence increase artefacts – biochemical, single-stranded RNase substrate, counter-screen for MazEF activator project, dose response (AID 588502); assay type: functional
HEK293 [12] = assay: HEK293T cell viability loss, resazurin readout – resazurin fluorescence, cytotoxicity control for NF-kB activator project, SAR follow-up (AID 493251); assay type: functional, cell-based; details: Homo sapiens
Jurkat = assay: SAR Analysis of small molecule inhibitors of T-cell specific antigen receptor-induced NF-kB activation in a Jurkat cell line using a luminescence assay - Set 2. [Related pubchem assays (depositor defined):AID435003, AID435012, AID465]; assay type: functional, cell-based; details: Homo sapiens
HEK293 [13] = assay: SAR Analysis of small molecule inhibitors of T-cell specific antigen receptor-induced NF-kB activation in a HEK-293T cell line using a luminescence assay - Set 2. [Related pubchem assays (depositor defined):AID435003, AID435012, AID489026]; assay type: functional, cell-based; details: Homo sapiens
Beta-galactosidase = Beta-galactosidase (Escherichia coli, UniProt Q8VNN2); assay: PubChem AID 485352; assay type: functional
[14] = target: T3, Type-1 angiotensin II receptor (Homo sapiens, UniProt P30556); assay: antagonism of angiotensin II type 1 receptor – cell-based, uHTS hits, selectivity assay for APJ receptor antagonist project, dose response (AID 463214); assay type: functional;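 note: antagonist potency against angiotensin II stimulated AT1 response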
T3 sequence (P30556 whole entry): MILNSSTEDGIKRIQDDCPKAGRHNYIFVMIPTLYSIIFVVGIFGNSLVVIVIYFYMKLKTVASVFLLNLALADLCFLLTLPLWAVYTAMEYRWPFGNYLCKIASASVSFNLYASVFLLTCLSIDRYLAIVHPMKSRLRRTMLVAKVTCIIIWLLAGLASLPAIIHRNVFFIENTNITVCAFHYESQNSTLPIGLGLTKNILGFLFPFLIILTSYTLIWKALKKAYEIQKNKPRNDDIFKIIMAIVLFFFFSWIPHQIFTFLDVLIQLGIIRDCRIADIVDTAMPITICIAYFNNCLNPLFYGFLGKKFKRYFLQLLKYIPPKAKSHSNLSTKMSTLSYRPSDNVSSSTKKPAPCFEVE

[15] = target: T4, Polyadenylate-binding protein 1 (Homo sapiens, UniProt P11940); assay: MLLE binding blockers, Cy5 peptide tracer – biochemical, fluorescence polarization, Cy5-PAM2 peptide, secondary, miRNA deadenylation inhibitor project, dose response (AID 602260); assay type: functional; details: read-out: IC50_Mean
[16] = target: T4, Polyadenylate-binding protein 1; assay: MLLE domain peptide-binding blockers, IC50 – biochemical, fluorescence polarization, FITC-PAM2 peptide, dose response (AID 602259); assay type: functional; details: read-out: IC50_Mean

T4 sequence (P11940 whole entry, the tested form may be a part): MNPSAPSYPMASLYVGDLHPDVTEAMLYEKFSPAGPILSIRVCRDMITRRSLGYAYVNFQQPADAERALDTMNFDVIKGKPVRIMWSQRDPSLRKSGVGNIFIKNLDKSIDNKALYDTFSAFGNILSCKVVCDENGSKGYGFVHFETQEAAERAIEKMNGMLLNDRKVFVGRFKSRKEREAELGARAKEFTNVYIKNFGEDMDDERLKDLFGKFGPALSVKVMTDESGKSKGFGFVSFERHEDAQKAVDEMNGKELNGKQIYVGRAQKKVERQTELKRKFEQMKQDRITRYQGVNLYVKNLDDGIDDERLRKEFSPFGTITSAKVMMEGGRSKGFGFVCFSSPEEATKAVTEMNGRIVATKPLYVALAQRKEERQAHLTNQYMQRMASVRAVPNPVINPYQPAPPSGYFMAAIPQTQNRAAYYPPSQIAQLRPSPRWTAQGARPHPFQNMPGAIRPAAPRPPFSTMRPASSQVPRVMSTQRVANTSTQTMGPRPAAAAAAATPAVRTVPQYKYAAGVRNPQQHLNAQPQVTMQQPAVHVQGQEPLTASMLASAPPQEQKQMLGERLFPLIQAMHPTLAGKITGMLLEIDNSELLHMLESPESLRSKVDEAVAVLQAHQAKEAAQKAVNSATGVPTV
T2 sequence (P0AE70 whole entry): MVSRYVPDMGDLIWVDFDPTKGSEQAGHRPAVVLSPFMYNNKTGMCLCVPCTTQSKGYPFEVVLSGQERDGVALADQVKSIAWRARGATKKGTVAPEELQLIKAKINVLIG
Trypsin, sequence (P00761 whole entry): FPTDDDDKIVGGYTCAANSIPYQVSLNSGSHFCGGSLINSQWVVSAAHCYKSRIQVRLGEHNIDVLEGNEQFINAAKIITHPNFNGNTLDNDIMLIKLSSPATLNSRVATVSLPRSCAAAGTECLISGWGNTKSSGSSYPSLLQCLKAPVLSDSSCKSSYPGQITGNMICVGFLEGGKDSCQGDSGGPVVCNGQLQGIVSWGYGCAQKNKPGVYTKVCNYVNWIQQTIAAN
CAAX prenyl protease 2, sequence (Q9Y256 whole entry): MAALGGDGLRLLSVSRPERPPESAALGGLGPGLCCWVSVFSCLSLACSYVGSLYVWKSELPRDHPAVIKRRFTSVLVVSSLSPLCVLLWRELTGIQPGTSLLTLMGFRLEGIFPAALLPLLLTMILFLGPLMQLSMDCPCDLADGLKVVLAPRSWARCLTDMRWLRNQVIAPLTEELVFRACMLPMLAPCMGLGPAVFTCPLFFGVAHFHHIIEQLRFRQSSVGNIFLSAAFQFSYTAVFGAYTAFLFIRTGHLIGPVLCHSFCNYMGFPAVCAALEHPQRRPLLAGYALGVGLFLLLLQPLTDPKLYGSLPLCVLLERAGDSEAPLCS
DNA dC->dU-editing enzyme APOBEC-3G, sequence (Q9HC16 whole entry): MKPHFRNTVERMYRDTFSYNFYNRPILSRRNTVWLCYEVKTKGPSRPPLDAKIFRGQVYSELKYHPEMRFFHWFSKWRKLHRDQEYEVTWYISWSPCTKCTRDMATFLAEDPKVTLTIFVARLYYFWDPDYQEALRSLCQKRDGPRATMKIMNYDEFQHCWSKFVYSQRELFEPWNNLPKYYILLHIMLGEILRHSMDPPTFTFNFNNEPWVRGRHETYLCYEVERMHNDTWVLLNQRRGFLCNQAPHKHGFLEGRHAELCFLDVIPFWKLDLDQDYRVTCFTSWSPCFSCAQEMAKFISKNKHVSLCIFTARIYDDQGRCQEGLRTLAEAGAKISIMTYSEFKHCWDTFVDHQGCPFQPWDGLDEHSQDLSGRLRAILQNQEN
Phosphomannomutase 2, sequence (O15305 whole entry): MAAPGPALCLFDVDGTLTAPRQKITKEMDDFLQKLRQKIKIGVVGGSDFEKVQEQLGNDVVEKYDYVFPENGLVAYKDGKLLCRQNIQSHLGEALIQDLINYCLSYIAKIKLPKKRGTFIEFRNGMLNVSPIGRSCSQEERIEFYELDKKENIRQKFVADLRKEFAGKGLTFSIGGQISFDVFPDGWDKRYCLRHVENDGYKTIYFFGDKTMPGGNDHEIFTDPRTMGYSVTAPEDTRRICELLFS
DNA dC->dU-editing enzyme APOBEC-3A, sequence (P31941 whole entry): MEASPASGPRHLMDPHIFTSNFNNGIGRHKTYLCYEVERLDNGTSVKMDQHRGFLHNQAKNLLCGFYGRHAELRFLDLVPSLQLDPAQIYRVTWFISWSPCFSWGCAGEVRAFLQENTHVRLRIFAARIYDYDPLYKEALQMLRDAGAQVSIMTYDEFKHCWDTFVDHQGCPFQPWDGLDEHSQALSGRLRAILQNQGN
Beta-galactosidase, sequence (Q8VNN2 whole entry): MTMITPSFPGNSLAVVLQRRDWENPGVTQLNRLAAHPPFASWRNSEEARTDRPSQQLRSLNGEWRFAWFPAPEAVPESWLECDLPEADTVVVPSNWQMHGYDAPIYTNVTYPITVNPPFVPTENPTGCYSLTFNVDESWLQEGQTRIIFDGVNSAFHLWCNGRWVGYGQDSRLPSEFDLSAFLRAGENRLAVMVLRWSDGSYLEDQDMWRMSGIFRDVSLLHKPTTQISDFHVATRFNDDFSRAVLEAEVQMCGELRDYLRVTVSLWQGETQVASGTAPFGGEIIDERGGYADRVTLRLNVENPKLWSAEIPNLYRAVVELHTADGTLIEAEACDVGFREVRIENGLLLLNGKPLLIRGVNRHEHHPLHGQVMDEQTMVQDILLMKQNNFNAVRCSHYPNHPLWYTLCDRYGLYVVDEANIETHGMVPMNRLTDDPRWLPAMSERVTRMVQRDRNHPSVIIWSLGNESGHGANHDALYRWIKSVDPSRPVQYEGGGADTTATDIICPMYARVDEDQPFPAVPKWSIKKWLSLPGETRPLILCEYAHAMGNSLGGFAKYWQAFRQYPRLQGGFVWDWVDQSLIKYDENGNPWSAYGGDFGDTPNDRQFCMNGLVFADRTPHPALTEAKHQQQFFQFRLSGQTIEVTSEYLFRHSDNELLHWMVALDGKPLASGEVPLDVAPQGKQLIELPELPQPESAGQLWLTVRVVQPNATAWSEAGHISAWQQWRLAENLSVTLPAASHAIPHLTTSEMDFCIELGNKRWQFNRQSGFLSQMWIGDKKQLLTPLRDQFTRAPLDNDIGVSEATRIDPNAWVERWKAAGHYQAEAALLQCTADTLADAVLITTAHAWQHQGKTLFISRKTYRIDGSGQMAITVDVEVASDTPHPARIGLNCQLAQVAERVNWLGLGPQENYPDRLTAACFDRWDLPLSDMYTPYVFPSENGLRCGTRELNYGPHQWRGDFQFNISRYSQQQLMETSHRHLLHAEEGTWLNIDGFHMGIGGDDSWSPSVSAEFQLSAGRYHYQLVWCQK

With `COc1ccc(OCC(O)Cn2c(=N)n(CCN3CCCCC3)c3ccccc32)cc1` (configuration not stated) the IC50 [1] was 2.41 µM (active) and the IC50 [2] was 4.23 µM (active).

In the case of `CC(=O)N/N=C(\C)c1ccc(NC(=O)C2CC2)cc1`, the EC50 [3] is reported as 500 µM (inactive).

For `S=c1[nH]nc(C2COc3ccccc3O2)[nH]1` (configuration not stated), the IC50 [4] was 7.29 µM (active), the IC50 [5] was 3.89 µM (active) and the IC50 [6] was > 100 µM (inactive). The IC50 (Phosphomannomutase 2) was > 100 µM (inactive) and the IC50 [7] was 4.34 µM (active).

With `Cc1cccc(-c2oc3ccccc3c2C#CCCO)c1` the CC50 [8] was 19.5 µM (active), the AC50 [9] was 7.86 µM (active) and the AC50 (Trypsin) was 3.96 µM (active). For the same molecule, the AC50 (CAAX prenyl protease 2) was 32 µM (active) and the IC50 (cells) was 24.2 µM (active).

For `CCOC(=O)c1c(N=C(S)Nc2ccc(Cl)cc2)sc2c1CCN(C)C2`, the EC50 [10] was > 99 µM (inactive) and the EC50 [11] was > 99 µM (inactive).

In the case of `O=C(Nc1cccc2ncccc12)c1ccc([N+](=O)[O-])o1`, the IC50 (HEK293 [12]) is reported as 69.4 µM (inactive), the IC50 (Jurkat) is reported as 21.8 µM (inactive) and the IC50 (HEK293 [13]) is reported as 23.4 µM (inactive).

With `Cc1c(Cl)cccc1NC(=S)NNc1ncc(C(F)(F)F)cc1Cl` the EC50 (Beta-galactosidase) was > 40 µM (inactive), the IC50 [14] was 11.9 µM (active) and the IC50 [15] was > 66 µM (inactive). For the same molecule, the IC50 [16] was > 66 µM (inactive).
